Measurements taken from PubChem BioAssay AID248 (DTP/NCI, 2004).
Several values for one entry are separate records, joined by “and”; a condition that tells them apart may be missing. Equal entries are not always repeated. Inconclusive results and toxic doses are left out. Cut-off read from the data, not from the text of the source: active = T/C of 150% or more; inactive = T/C below 125%.

Test system: L1210 leukemia ip in BDF1 mice, survival T/C
Experiment: NCI In Vivo Anticancer Drug Screen. Data for tumor model L1210 Leukemia (intraperitoneal) in B6D2F1 (BDF1) mice
Conditions: endpoint: mean survival time, higher = longer survival
Summary of the method: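 Value reflects the ratio of survival in compound-treated mice to survival in vehicle-treated controls, with both groups carrying the same transplanted tumor.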

[1] = dose: 100.0 mg/kg/injection, schedule: Q01DX001 (ip), vehicle: saline
[2] = dose: 100.0 mg/kg/injection, schedule: Q04DX003 (ip), vehicle: saline
[3] = dose: 100.0 mg/kg/injection, schedule: Q04DX003 (ip), vehicle: saline with Tween-80
[4] = dose: 200.0 mg/kg/injection, schedule: Q04DX003 (ip), vehicle: saline with Tween-80
[5] = dose: 400.0 mg/kg/injection, schedule: Q04DX003 (ip), vehicle: saline with Tween-80
[6] = dose: 100.0 mg/kg/injection, schedule: Q01DX009 (ip), vehicle: Klucel (hydroxypropylcellulose) (HPC)
[7] = dose: 200.0 mg/kg/injection, schedule: Q01DX009 (ip), vehicle: Klucel (hydroxypropylcellulose) (HPC)
[8] = dose: 400.0 mg/kg/injection, schedule: Q01DX009 (ip), vehicle: Klucel (hydroxypropylcellulose) (HPC)

Measured: T/C

Cc1ccc([N+](=O)[O-])cc1O
inactive: dose: 25.0 mg/kg/injection, schedule: Q04DX003 (ip), vehicle: saline 98 % of control | dose: 50.0 mg/kg/injection, schedule: Q04DX003 (ip), vehicle: saline 102 % of control | [1] 97 % of control | [2] 97 % of control

CCOc1ccc2ccsc2c1
inactive: [1] 98 % of control | dose: 200.0 mg/kg/injection, schedule: Q01DX001 (ip), vehicle: saline 98 % of control | dose: 400.0 mg/kg/injection, schedule: Q01DX001 (ip), vehicle: saline 96 % of control

N#Cc1ccc(Oc2ccc(C#N)cc2)cc1
inactive: [3] 100 % of control | [4] 97 % of control | [5] 101 % of control

CCOC(OCC)C(=O)C(C#N)c1ccc(C#N)cc1 (stereo not drawn)
inactive: dose: 3.12 mg/kg/injection, schedule: Q01DX009 (ip), vehicle: DMSO 90 % of control | dose: 6.25 mg/kg/injection, schedule: Q01DX009 (ip), vehicle: DMSO 88 % of control | dose: 12.5 mg/kg/injection, schedule: Q01DX009 (ip), vehicle: DMSO 92 % of control and 88 % of control

CC(=O)Nc1ccc2c(c1)[nH]c(=O)c1ccccc12
inactive: dose: 100.0 mg/kg/injection, schedule: Q01DX001 (ip), vehicle: carboxymethylcellulose (CMC) 96 % of control | dose: 200.0 mg/kg/injection, schedule: Q01DX001 (ip), vehicle: carboxymethylcellulose (CMC) 93 % of control | dose: 400.0 mg/kg/injection, schedule: Q01DX001 (ip), vehicle: carboxymethylcellulose (CMC) 96 % of control

CCCC1C/C(=C\NC(N)=O)C(=O)O1 (stereo not drawn)
inactive: dose: 100.0 mg/kg/injection, schedule: Q01DX005 (ip), vehicle: saline with Tween-80 100 % of control | [3] 104 % of control | dose: 200.0 mg/kg/injection, schedule: Q01DX005 (ip), vehicle: saline with Tween-80 100 % of control | [4] 96 % of control | dose: 400.0 mg/kg/injection, schedule: Q01DX005 (ip), vehicle: saline with Tween-80 112 % of control | [5] 101 % of control

CN(C)CCCCC(C#N)(c1ccccc1)c1ccccc1
inactive: dose: 15.0 mg/kg/injection, schedule: Q01DX001 (ip), vehicle: saline 88 % of control | dose: 30.0 mg/kg/injection, schedule: Q01DX001 (ip), vehicle: saline 92 % of control

Cc1ccccc1NC(=S)N1CCOCC1
inactive: [6] 105 % of control | [7] 108 % of control | [8] 111 % of control

CC(=O)Oc1cccc(OC(C)=O)c1OC(C)=O
inactive: [6] 103 % of control | dose: 100.0 mg/kg/injection, schedule: Q04DX003 (ip), vehicle: Klucel (hydroxypropylcellulose) (HPC) 107 % of control | [7] 100 % of control | dose: 200.0 mg/kg/injection, schedule: Q04DX003 (ip), vehicle: Klucel (hydroxypropylcellulose) (HPC) 97 % of control | [8] 97 % of control | dose: 400.0 mg/kg/injection, schedule: Q04DX003 (ip), vehicle: Klucel (hydroxypropylcellulose) (HPC) 100 % of control

O=C(C[n+]1cccc(C(=O)Nc2ccc(Cl)cc2)c1)Nc1ccccc1
inactive: [2] 92 % of control | dose: 200.0 mg/kg/injection, schedule: Q04DX003 (ip), vehicle: saline 101 % of control

NC(N)=N/N=C(\CBr)c1ccc([N+](=O)[O-])cc1
inactive: dose: 15.0 mg/kg/injection, schedule: Q01DX Z (ip), vehicle: carboxymethylcellulose (CMC) 97 % of control | dose: 30.0 mg/kg/injection, schedule: Q01DX Z (ip), vehicle: carboxymethylcellulose (CMC) 92 % of control | dose: 30.0 mg/kg/injection, schedule: Q01DX Z (oral), vehicle: carboxymethylcellulose (CMC) 100 % of control | dose: 60.0 mg/kg/injection, schedule: Q01DX Z (ip), vehicle: carboxymethylcellulose (CMC) 98 % of control and 91 % of control | dose: 60.0 mg/kg/injection, schedule: Q01DX Z (oral), vehicle: carboxymethylcellulose (CMC) 103 % of control | dose: 120.0 mg/kg/injection, schedule: Q01DX Z (ip), vehicle: carboxymethylcellulose (CMC) 92 % of control | dose: 120.0 mg/kg/injection, schedule: Q01DX Z (oral), vehicle: carboxymethylcellulose (CMC) 102 % of control | dose: 240.0 mg/kg/injection, schedule: Q01DX Z (oral), vehicle: carboxymethylcellulose (CMC) 92 % of control

CC(C)(C)c1cc(C=O)cc(C(C)(C)C)c1O
inactive: dose: 100.0 mg/kg/injection, schedule: Q04DX002 (ip), vehicle: saline with Tween-80 95 % of control | dose: 200.0 mg/kg/injection, schedule: Q04DX002 (ip), vehicle: saline with Tween-80 95 % of control | dose: 400.0 mg/kg/injection, schedule: Q04DX002 (ip), vehicle: saline with Tween-80 91 % of control

CCN(CC)Cc1ccccc1COC(=O)c1cccc(Cl)c1
inactive: dose: 100.0 mg/kg/injection, schedule: Q04DX002 (ip), vehicle: Klucel (hydroxypropylcellulose) (HPC) 103 % of control | dose: 200.0 mg/kg/injection, schedule: Q04DX002 (ip), vehicle: Klucel (hydroxypropylcellulose) (HPC) 103 % of control | dose: 400.0 mg/kg/injection, schedule: Q04DX002 (ip), vehicle: Klucel (hydroxypropylcellulose) (HPC) 92 % of control

CCC(C)OC(=O)Nc1cccc(OC(=O)NC)c1 (stereo not drawn)
inactive: [3] 104 % of control | [4] 94 % of control | [5] 97 % of control

[CH3][Ga]([CH3])[O]c1ccccc1C=O
inactive: dose: 1.5 mg/kg/injection, schedule: Q01DX009 (ip), vehicle: DMSO 97 % of control | dose: 1.5 mg/kg/injection, schedule: Q04DX003 (ip), vehicle: DMSO 107 % of control | dose: 3.0 mg/kg/injection, schedule: Q01DX009 (ip), vehicle: DMSO 97 % of control | dose: 3.0 mg/kg/injection, schedule: Q04DX003 (ip), vehicle: DMSO 94 % of control | dose: 6.0 mg/kg/injection, schedule: Q01DX009 (ip), vehicle: DMSO 108 % of control | dose: 6.0 mg/kg/injection, schedule: Q04DX003 (ip), vehicle: DMSO 102 % of control

CC(N)CC12CC3CC(CC(C3)C1)C2 (stereo not drawn)
inactive: dose: 25.0 mg/kg/injection, schedule: Q04DX002 (ip), vehicle: saline 92 % of control | dose: 50.0 mg/kg/injection, schedule: Q04DX002 (ip), vehicle: saline 95 % of control | dose: 100.0 mg/kg/injection, schedule: Q04DX002 (ip), vehicle: saline 97 % of control

CN=C(NN)NN
inactive: dose: 2.5 mg/kg/injection, schedule: Q01DX009 (ip), vehicle: saline 106 % of control | dose: 5.0 mg/kg/injection, schedule: Q01DX009 (ip), vehicle: saline 95 % of control | dose: 5.0 mg/kg/injection, schedule: Q04DX003 (ip), vehicle: saline 95 % of control | dose: 10.0 mg/kg/injection, schedule: Q01DX001 (ip), vehicle: saline 102 % of control | dose: 10.0 mg/kg/injection, schedule: Q01DX009 (ip), vehicle: saline 97 % of control | dose: 10.0 mg/kg/injection, schedule: Q04DX003 (ip), vehicle: saline 103 % of control | dose: 20.0 mg/kg/injection, schedule: Q01DX001 (ip), vehicle: saline 103 % of control | dose: 20.0 mg/kg/injection, schedule: Q04DX003 (ip), vehicle: saline 90 % of control

IC1CCCOC1[n+]1ccccc1 (stereo not drawn)
inactive: dose: 12.5 mg/kg/injection, schedule: Q01DX009 (ip), vehicle: saline with Tween-80 102 % of control | dose: 12.5 mg/kg/injection, schedule: Q04DX003 (ip), vehicle: saline with Tween-80 96 % of control | dose: 25.0 mg/kg/injection, schedule: Q01DX009 (ip), vehicle: saline with Tween-80 100 % of control | dose: 25.0 mg/kg/injection, schedule: Q04DX003 (ip), vehicle: saline with Tween-80 104 % of control | dose: 50.0 mg/kg/injection, schedule: Q01DX009 (ip), vehicle: saline with Tween-80 103 % of control | dose: 50.0 mg/kg/injection, schedule: Q04DX003 (ip), vehicle: saline with Tween-80 98 % of control

CCCCCCCCCCCCCCCCCC(=O)N/N=C/c1cccc([N+](=O)[O-])c1
inactive: [6] 94 % of control | [7] 96 % of control | [8] 88 % of control
